From patent US10150737B2, “Compounds for controlling arthropods” (priority 2013, dated 2018) come the findings set out here.

A short description of series [1]: logP determination by HPLC on a reversed-phase column (C18). The note with it: for logP^a): HPLC-MS method a); for log P: HPLC-MS. It is filed as physicochemical.
Series [2] concerns Ctenocephalides felis. The series can be described thus: Ctenocephalides felis - in vitro contact tests with adult cat fleas. It is filed as in vivo. Particulars: application rate 5 μg/cm2 (=500 g/ha); after 48 h; fleas dead or moribund. The essentials: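 Efficacy, as percentage of fleas dead or moribund, was scored at 48 h by knocking fleas to the tube base. Exposure was by contact with a dried acetone film of compound at 5 μg/cm^2 area dose; 5–10 adults per tube, room temperature, ambient humidity.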

Another series has as its system Amblyomma hebraeum. Briefly: Amblyomma hebaraeum test (tick nymphs, immersion). Particulars: application rate 100 ppm; tick nymphs immersed one minute; after 42 days. It is filed as in vivo. The procedure: (§1) Solvent: dimethyl sulphoxide
To produce an appropriate active ingredient formulation, 10 mg of active ingredient are mixed with 0.5 ml of dimethyl sulphoxide, and the concentrate is diluted with water to the desired concentration.
Tick nymphs (Amblyomma hebraeum) are placed into perforated plastic beakers and immersed in the desired concentration for one minute. The ticks are transferred on filter paper into a Petri dish and stored in a climate-controlled cabinet.
After 42 days, the kill in % is determined. 100% means that all of the ticks have been killed; 0% means that none of the ticks have been killed.

Another series deals with Boophilus microplus. Briefly: Boophilus microplus - injection test. Format: in vivo. Particulars: application rate 20 μg/animal; injection into engorged adult female ticks; after 7 days. Summed up: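 Five engorged adult female cattle ticks each received a 1 μl abdominal injection of compound solution in dimethyl sulphoxide. Fertile egg laying was assessed at 7 days, with doubtful eggs incubated about 42 days until hatch. 0% efficacy means all eggs fertile.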

The subject of series [3] is Boophilus microplus Parkhurst strain, SP-resistant. Briefly: Boophilus microplus - dip test. Format: in vivo. Particulars: application rate 100 ppm; dip of engorged adult female ticks; after 7 days. The method, then:
Test animals: cattle ticks (Boophilus microplus) Parkhurst strain, SP-resistant
as §1
10 mg of active ingredient are dissolved in 0.5 ml of dimethyl sulphoxide. For the purpose of producing a suitable formulation, the active ingredient solution is diluted with water to the concentration desired in each case.
This active ingredient formulation is pipetted into tubes. 8-10 adult engorged female cattle ticks (Boophilus microplus) are transferred into a further tube with holes. The tube is immersed into the active ingredient formulation, and all the ticks are completely wetted. After the liquid has run out, the ticks are transferred on filter discs into plastic dishes and stored in a climate-controlled room.
Efficacy is assessed after 7 days by laying of fertile eggs. Eggs which are not visibly fertile are stored in a climate-controlled cabinet until the larvae hatch after about 42 days. An efficacy of 100% means that none of the ticks has laid any fertile eggs; 0% means that all the eggs are fertile.

In series [4] the test system is Ctenocephalides felis. The series can be described thus: Ctenocephalides felis - oral test. It is filed as in vivo. The note with it: application rate 100 ppm in citrated cattle blood; after 2 days. The essentials:
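Roughly 20 unfed adult C. felis imbibe compound-dosed citrated cattle blood (DMSO formulation) across parafilm from a cylinder above their gauze chamber; percentage mortality recorded at day 2.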

For the next series, the system named is Myzus persicae. Briefly: Myzus persicae - spray test. It is filed as in vivo. The note with it: application rate 100 g/ha; Chinese cabbage leaf discs; after 6 days. The essentials: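 Mortality of the green peach aphid, as % killed, was read 6 days after spraying infested Brassica pekinensis leaf discs. Compound formulated in acetone/dimethylformamide and made up with emulsifier-containing (1000 ppm) water.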

Another series relates to Phaedon cochleariae. Briefly: Phaedon cochleariae - spray test. The note with it: larvae on Chinese cabbage leaf discs, after 7 days. Format: in vivo. The essentials: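 Mortality of mustard beetle larvae was scored as % at day 7 on Brassica pekinensis leaf discs. Discs had been treated by spraying at the desired concentration, using an acetone/dimethylformamide solution diluted in water with 1000 ppm alkylaryl polyglycol ether, and dried before larvae were added.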

For a further series, the system named is Spodoptera frugiperda. Briefly: Spodoptera frugiperda - spray test. Format: in vivo. The note with it: caterpillars on maize leaf discs, after 7 days. Summed up:
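Percent mortality of Spodoptera frugiperda caterpillars scored 7 days after placing them on dried maize leaf discs sprayed at the desired concentration. Spray formulation: compound dissolved in acetone/dimethylformamide, made up with water containing 1000 ppm emulsifier.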

Another series deals with Tetranychus urticae. The series can be described thus: Tetranychus urticae - spray test, OP-resistant. The note with it: bean leaf discs, after 6 days. It is filed as in vivo. The essentials:
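Mortality (%) read on day 6 after spraying Phaseolus vulgaris leaf discs carrying all mite stages with formulations at the desired concentration. Formulation: active ingredient in acetone plus dimethylformamide, made up with emulsifier-containing water (1000 ppm alkylaryl polyglycol ether).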

The next series relates to Lucilia cuprina. Briefly: Lucilia cuprina test. It is filed as in vivo. The note with it: application rate 100 ppm; L1 larvae; after 2 days. The essentials:
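Mortality (%) of first-instar blowfly larvae, about 20 per vessel, recorded 2 days after exposure to compound-treated minced horsemeat. Compound dissolved in dimethyl sulphoxide, then water-diluted to the desired concentration.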

Another series deals with Musca domestica. The series can be described thus: Musca domestica test. Format: in vivo. Particulars: application rate 100 ppm; adult houseflies; after 2 days. The essentials:
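Water-diluted DMSO stock of compound, mixed onto a sugar-treated sponge, served as the sole exposure route for ten adult houseflies. Kill percentage scored at 2 days.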

The next series has as its system Rhipicephalus sanguineus. Briefly: Rhipicephalus sanguineus - in vitro contact tests with adult brown dog ticks. Particulars: application rate 5 μg/cm2; after 48 h; ticks dead or moribund. It is filed as in vivo. The method, then:
For the coating of the test tubes, 9 mg of active ingredient are first dissolved in 1 ml of acetone p.a. and then diluted to the desired concentration with acetone p.a. 250 μl of the solution are distributed homogeneously on the inner walls and base of a 25 ml test tube by turning and rocking on an orbital shaker (rocking rotation at 30 rpm for 2 h). With 900 ppm active ingredient solution and internal surface 44.7 cm^2, given homogeneous distribution, an area-based dose of 5 μg/cm^2 is achieved.
After the solvent has evaporated off, the tubes are populated with 5-10 adult dog ticks (Rhipicephalus sanguineus), sealed with a perforated plastic lid and incubated in a horizontal position in the dark at room temperature and ambient humidity. After 48 h, efficacy is determined. To this end, the ticks are knocked to the floor of the tube and incubated on a hotplate at 45-50° C. for not more than 5 min. Ticks which remain motionless on the floor or move in such an uncoordinated manner that they are unable to deliberately avoid the heat by climbing upwards are considered to be dead or moribund.
An efficacy of 100% means that all the ticks were dead or moribund. 0% efficacy means that none of the ticks had been harmed.

Setting [5] is: reversed-phase column (C18), Table I-T3.

Turning to `N#CC1(NC(=O)c2cc(-c3cnn(-c4c(Cl)cc(C(F)(F)F)cc4Cl)c3)cnc2Cl)CC1` [I-T3-95], the “logP^a)” value in series [1] is given as 3.1. For the same compound, the “log P” value in series [1] (setting [5]) is recorded as 3.1. The efficacy is listed as 100% in the series on Ctenocephalides felis [2]; 90% in the series on Myzus persicae; 100% with Phaedon cochleariae (application rate 100 g/ha); 100% in the series with Spodoptera frugiperda (application rate 100 g/ha); 100% with Tetranychus urticae (application rate 100 g/ha). Besides, the “efficacy (kill)” value in the series with Amblyomma hebraeum and with Ctenocephalides felis [4] was 100% each time. Besides, the “efficacy (laying of fertile eggs)” value (with Boophilus microplus; in series [3]) was 100% throughout.
For the compound `Cc1cc(C(F)(C(F)(F)F)C(F)(F)F)cc(C(F)(F)F)c1-n1cc(-c2cnc(Cl)c(C(=O)N(C)C3(C#N)CC3)c2)cn1` [I-T3-111], the “logP^a)” value in [1] (reversed-phase column (C18)) turned out to be 4.4. Further, the “log P” value in [1] (setting [5]) worked out at 4.4. Also, the efficacy was found to be 100% with Ctenocephalides felis [2], 100% with Phaedon cochleariae (application rate 500 g/ha), 100% in the series with Spodoptera frugiperda (application rate 500 g/ha) and 90% with Tetranychus urticae (application rate 100 g/ha). Further, the “efficacy (kill)” value in the series with Amblyomma hebraeum is reported as 80%; in the series on Ctenocephalides felis [4], 100%; in the series on Lucilia cuprina, 100%; in the series with Musca domestica it was 100%. Besides, the “efficacy (laying of fertile eggs)” value with Boophilus microplus is 100%; in [3] it was 98%.
As for `CN(C(=O)c1cc(-c2cnn(-c3c(Cl)cc(C(F)(C(F)(F)F)C(F)(F)F)cc3Cl)c2)cnc1Cl)C1(C#N)CC1` [I-T3-102], the “logP^a)” value in [1] (reversed-phase column (C18)) amounted to 4.3. Also, in series [1] (setting [5]), the “log P” value amounted to 4.3. Moreover, the efficacy stood at 100% with Ctenocephalides felis [2], 100% in the series on Phaedon cochleariae (application rate 500 g/ha), 100% in the series on Spodoptera frugiperda (application rate 500 g/ha) and 90% in the series with Tetranychus urticae (application rate 500 g/ha). In addition, the “efficacy (kill)” value in the series with Amblyomma hebraeum was found to be 90%; in the series with Ctenocephalides felis [4] it was 100%; in the series with Lucilia cuprina it was 100%; in the series with Musca domestica, 100%. The “efficacy (laying of fertile eggs)” value (in the series on Boophilus microplus; in series [3]) was 100% each time.
`Cc1cc(C(F)(C(F)(F)F)C(F)(F)F)cc(Br)c1-n1cc(-c2ccc(Cl)c(C(=O)NC3CC3)c2)cn1` [I-T3-86]: the “logP^a)” value in series [1] and in [1] (setting [5]) was 4.5 each time. The efficacy in the series with Ctenocephalides felis [2], in the series on Phaedon cochleariae (application rate 100 g/ha), in the series on Spodoptera frugiperda (application rate 100 g/ha) and with Tetranychus urticae (application rate 100 g/ha) was 100% throughout. Moreover, the “efficacy (kill)” value in the series on Amblyomma hebraeum, with Ctenocephalides felis [4], in the series with Lucilia cuprina and in the series on Musca domestica was 100% throughout. The “efficacy (laying of fertile eggs)” value (with Boophilus microplus; in series [3]) was 100% in each case.
`Cc1cc(C(F)(C(F)(F)F)C(F)(F)F)cc(C(F)(F)F)c1-c1cc(-c2ccc(Cl)c(C(=O)NC3CC3)c2)on1` [I-T22-5]: the logP in [1] (HPLC, C18 reversed phase, acetonitrile/water with formic acid, EEC Directive 79/831 Annex V.A8) stood at 4.9. The efficacy with Rhipicephalus sanguineus, with Ctenocephalides felis [2], with Myzus persicae, in the series with Phaedon cochleariae (application rate 100 g/ha), in the series on Spodoptera frugiperda (application rate 100 g/ha) and with Tetranychus urticae (application rate 100 g/ha) was 100% each time. Besides, the “efficacy (laying of fertile eggs)” value (with Boophilus microplus; in series [3]) was 100% in each case. Moreover, the “efficacy (kill)” value with Ctenocephalides felis [4], in the series with Lucilia cuprina and with Musca domestica was 100% in each case.
With `N#CC1(NC(=O)c2cc(-c3cnn(-c4c(Cl)cc(C(F)(C(F)(F)F)C(F)(F)F)cc4C(F)(F)F)c3)ccc2Cl)CC1` [I-T3-57], the “logP^a)” value in [1] and in series [1] (setting [5]) was 4.3 in each case. Further, the efficacy in the series on Ctenocephalides felis [2], in the series on Phaedon cochleariae (application rate 100 g/ha), with Spodoptera frugiperda (application rate 100 g/ha) and in the series with Tetranychus urticae (application rate 100 g/ha) was 100% each time. The “efficacy (kill)” value with Amblyomma hebraeum, in the series with Ctenocephalides felis [4], in the series on Lucilia cuprina and in the series on Musca domestica was 100% in each case. For the same compound, the “efficacy (laying of fertile eggs)” value (in the series with Boophilus microplus; in [3]) was 100% in each case.

The log P is a log measure of how a compound divides between an organic and an aqueous phase. High values mean higher lipophilicity, low ones lower lipophilicity. In general, logP refers to a log measure of how a compound divides between an organic and an aqueous phase. Higher therefore signals a more lipophilic compound.
